The record followed here is patent US20090291088A1, “THERAPEUTIC COMBINATIONS OF ANTI-IGF-1R ANTIBODIES AND OTHER COMPOUNDS” (Biogen Idec MA Inc., priority 2008, published 2009).

The test system of experiment [1] is NSCLC, pancreatic, and colon cancer cell lines. Put plainly: Cell viability, M13-C06 and PD0325901 alone or combined. The format is cell-based. Particulars: PD0325901 single agent. The protocol: Cells were plated at 5000 cells/well in 96-well tissue culture plates in RPMI-1640 containing 10% fetal bovine serum, then treated with M13-C06 and PD0325901 as single agents or in combination at 1:3 serial dilutions with a starting concentration of 200 nM for M13-C06 and 10 microM for PD0325901. Cell viability was determined three or five days later by measuring ATP levels with CELL TITER GLO™ reagent from Promega.

Experiment [2] deals with NSCLC, pancreatic and colon cancer cell lines. Put plainly: Cell viability, M13-C06 and erlotinib alone or combined. The format is cell-based. The protocol:
M13-C06 (human IgG4 Pagly anti-IGF-1R antibody) is currently in clinical development for multiple solid tumors. We evaluated the effect of anti-IGF-1R M13-C06 in combination with erlotinib (American Custom Chemicals Corp., cat# 183319-69-9 (San Diego, Calif.)) on the growth (proliferation) of a panel of NSCLC, pancreatic and colon cancer cell lines. Cells were plated at 5000 cells per well in 96-well tissue culture plates in RPMI-1640 (containing 10% fetal bovine serum (FBS, Hyclone cat# Sh30071.03)) and then treated with M13-C06 or erlotinib as single agents or in combination at 1:3 serial dilutions with a starting concentration of 200 nM and 20 microM for M13-C06 and for erlotinib respectively.

The subject of experiment [3] is AKT and MAPK phosphorylation in NSCLC cell lines. Put plainly: Western blot of AKT and MAPK phosphorylation, M13-C06 and erlotinib. The format is cell-based. The note with it: 10 microM erlotinib, 3 hours. As for the experimental part: We set to determine the molecular mechanisms underlying the observed enhanced anti-tumor effect of combining erlotinib and M13-C06 in NSCLC cell lines. AKT and MAPK activation status was evaluated after treatment with erlotinib and M13-C06 as single agents or in combination, since AKT and MAPK are common downstream signaling targets of IGF-1R and EGFR. Tumor cell lines were plated onto 6-well plates at 1.2×10^6 per well, in RPMI+10% FBS media, and allowed to adhere overnight. The following day, media from wells was removed and replaced with 100 nM M13-C06 or IDEC151 (human IgG4 isotype control antibody) in combination with either media (single agent control) or 10 microM erlotinib in media. Assay plates were incubated in a 37° C., 5% C02 humidified incubator for 3 hours, and cellular proteins were extracted in cell lysis buffer (Cell Signaling Technology, cat# 9803 (Danvers, Mass. USA)). Protein concentrations in lysates were measured using a BCA protein assay kit (Pierce, cat# 23227 (Pierce Biotechnology, Inc., Rockford, Ill.)) and equal amount of proteins were run on a NUPAGE 4-12% Tris-Bis gel, and transferred to a nitrocellulose membrane (0.45 μm pore). Phosphorylation was detected by treatment with antibodies specific for phospho-AKT, total AKT, phospho-MAPK, or total MAPK (Cell Signaling technology, cat #9271, 9272, 9101, 9102), followed by treatment with anti-Rabbit-IgG-HRP (Southern Biotech. cat# 4050-05). Blots were developed with Supersignal Western Substrate Kit (Pierce, cat#34095) and the chemiluminescent image was captured on a BioRad Max2 imager. […] In general, the effects of M13-C06 and erlotinib on downstream signaling molecules AKT and MAPK correlate with their effects on cell growth as shown in FIG. 41.
(In general: In western blotting, separated proteins are transferred to a membrane and probed.)

In experiment [4] the test system is MiaPaCa2 pancreatic carcinoma cells. In words: MiaPaCa2 pancreatic carcinoma xenograft. The format is in vivo, mouse. The note with it: gemcitabine alone, 20 mg/kg, Q4D×3. The text has this: Female SCID mice were innoculated in the right flank with 2×10^6 MiaPaCa2 pancreatic carcinoma cells in 50% Matrigel (BD Biosciences)/PBS.
Experiment [5] has as its system AKT and S6K signaling in sarcoma and lung tumor cell lines. Put plainly: Western blot of AKT and S6K phosphorylation, M13-C06 and rapamycin. The format is cell-based. The note with it: 100 nM rapamycin, 3 hours. As for the experimental part: It has been reported that rapamycin inhibition of mTOR induces AKT activation through S6K (S6 kinase) and IGF-1R/IRS-1 (Insulin Receptor Substrate-1) dependent feedback loop (O'Reilly, et al., Cancer Research, vol. 66, p. 1500-1508 (2006)). We therefore examined the effect of M13-C06 and rapamycin on AKT and S6K signaling in selected sarcoma and lung tumor cell lines in which M13-C06 enhanced the anti-tumor activity of rapamycin. Cells were plated onto 12 well plates at 6×10^5 per well, in McCoy's 5A medium plus 15% FBS for sarcoma and RPMI-1640 plus 10% FBS for NSCLC cell lines, and allowed to adhere overnight. The following day, media from wells was removed and replaced with 100 nM M13-C06 or IDEC151 in combination with either media (single agent control) or 100 nM rapamycin in media. Assay plates were incubated in a 37° C., 5% CO2 humidified incubator for 3 hours, cells were lysed in Cell Signaling Lysis Buffer (Cell Signal Technologies, #9803), and the lysates were normalized by protein concentration and run on a NUPAGE 4-12% Tris-Bis gel, then transferred to a nitrocellulose membrane. Phosphorylation status of AKT and S6K was detected by treatment with antibodies specific for phospho-AKT, total AKT phospho-S6K, or total S6K (Cell Signaling technology, cat# 2215, 2217), then by treatment with anti-Rabbit-IgG-HRP (Cell Signaling Biotechnology, cat# 7071). […]

Experiment [6] deals with NSCLC, pancreatic, colon cancer and sarcoma cell lines. In words: Cell viability, M13-C06 and rapamycin alone or combined. The experiment is classed as cell-based. As for the experimental part: For cell growth assays, cells were plated at 5000 cells per well in 96-well tissue culture plates in RPMI-1640 containing 10% fetal bovine serum (for most cell lines) or McCoy's 5A plus 15% FBS (for sarcoma cell lines). Cells were treated with M13-C06 and rapamycin (American Custom Chemicals Corp. cat# 53123-88-9) as a single agent or in combination at 1:3 serial dilutions with a starting concentration of 200 nM for M13-C06 and 100 nM or 1 microM for rapamycin for three or five days. Cell viability was determined by measuring ATP levels with CELL TITER GLO™ reagent.

The subject of a further experiment is IGF-1R-Fc. Put plainly: Surface plasmon resonance analysis of the IGF-1R-Fc mutant library (46 mutants). The note with it: KD relative to WT hIGF-1R-Fc; for C06 binding: M13-C06 Fab; for C03 binding: M14-C03 Fab; for G11 binding: M14-G11 Fab. The experiment is classed as binding, human. As for the experimental part:
Surface plasmon resonance (SPR) experiments were performed on a Biacore 3000 instrument set to 25° C. Both mIGF-1R-Fc and hIGF-1R-Fc bind with high apparent affinity to research grade CM5 sensorchip surfaces containing immobilized M13-C06, M14-C03, and M14-G11. The antibody sensorchip surfaces were prepared by injecting each antibody (diluted 100 μg/mL in 10 mM Acetate, pH 4.0) over EDC/NHS-activated sensorchip surfaces according to the standard protocol of the manufacturer. The ability of mIGF-1R-Fc to bind the antibody surfaces was the result of high apparent avidity of the protein. Both hIGF-1R-Fc and mIGF-1R-Fc proteins oligomerize due to the incorporation of two separate homodimeric regions (IGF-1R and IgG1-Fc). To distinguish between actual high affinity antibody binding to hIGF-1R-Fc and low affinity antibody binding to mIGF-1R-Fc, the receptor-Fc fusions were captured on the M13-C06 and M14-G11 sensorchip surfaces followed by an additional injection of antibody (αIR3 and P1E2) or antibody Fab (M13-C06, M14-C03, and M14-G11). […] After, completion of the receptor-Fc loading step, flow rates were elevated to 5 μl/min. Solutions containing M13-C06 Fab or αIR3 antibody at 10 nM, 3 nM, or 1 nM or M14-C03 Fab, M14-G11 Fab, or P1E2 antibody at 30 nM, 10 nM, or 3 nM were injected (50 μL) subsequent to the loading of each receptor-Fc construct. Dissociation was measured for 7 minutes after the antibody injections were complete. Finally, the flow rate was elevated to 30 μL/min and the chip surfaces were regenerated by 2×10 μL injections of 0.1 M glycine, pH 2.
M13-C06, M14-C03, M14-G11, P1E2 and αIR3 were assayed for their ability to interact with each of the mutant IGF-1R-Fc fusion constructs using surface plasmon resonance (Biacore). To remove the uncertain concentrations of the IGF-1R-Fc fusion constructs as a variable in the assay, each mutant construct was captured on a research grade CM5 chip containing ˜10,000 RU immobilized […], M14-C03, and M14-G11 antibody. To enhance our ability to visualize attenuations in antibody binding to the captured mutant IGF-1R constructs, we utilized enzymatically derived M13-C06, M14-C03, and M14-G11 antigen binding fragments (Fabs).
In general terms: In SPR one partner is held on a chip, and binding of the other changes the refractive index at the surface.

The test system of the next experiment is IGF-1R. In words: Biacore analysis of the IGF-1R-Fc mutant library: M13-C06 Fab binding to receptor-Fc captured on M13-C06 chip. On the set-up: species or system human. The note with it: M13-C06 Fab binding to mutant hIGF-1R-Fc captured on M13-C06 chip. The source says: Both mIGF-1R-Fc and hIGF-1R-Fc bind with high apparent affinity to the M13-C06, M14-C03, and M14-G11 sensorchip surfaces described above due to their highly multivalent nature induced by the incorporation of two separate homodimeric regions (IGF-1R and IgG1-Fc). To distinguish between the actual high affinity binding hIGF-1R-Fc to M13-C06 and the low affinity binding of mIGF-1R-Fc to M13-C06, the receptor-Fc fusions were captured on the M13-C06 sensorchip surface followed by an additional soluble M13-C06 Fab binding event. […] After, completion of the receptor-Fc loading step, flow rates were elevated to 5 μl/min. 10 nM, […], and 1 nM M13-C06 Fab concentrations were injected (50 μL) subsequent to the loading of each receptor-Fc construct. At the end of each sensorgram, the flow rate was elevated to 30 μl/min and the chip surface was regenerated by 2×10 μL injections of 0.1 M glycine, pH 2.

For `O=C(NOC[C@H](O)CO)c1ccc(F)c(F)c1Nc1ccc(I)cc1F` [PD0325901, (R)—N-(2,3-dihydroxypropoxy)-3,4-difluoro-2-(2-fluoro-4-iodophenylamino)benzamide, reference compound], the cell growth entry in experiment [1] (7 NSCLC cell lines) is “five of them were sensitive to PD0325901 inhibition”; in experiment [1] (BxPC3 and Panc-1), “intermediate response”; in experiment [1] (H460 and H1650), “showed less response”; in experiment [1] (MiaPaCa2 and Su86.86) it was “sensitive to PD0325901 as a single agent”.

Turning to `C#Cc1cccc(Nc2ncnc3cc(OCCOC)c(OCCOC)cc23)c1` [erlotinib, N-(3-ethynylphenyl)-6,7-bis(2-methoxyethoxy)quinazolin-4-amine, reference compound], the cell growth result was “substantially inhibited the growth of only H322M and H1650 cell lines” in experiment [2] (erlotinib single agent, 7 NSCLC cell lines, five days); “none of 5 colon cancer cell lines showed substantial growth inhibition” in experiment [2] (erlotinib, 5 colon cancer cell lines). Besides, the “phosphorylation of MAPK” value is reported as “partial inhibition of MAPK phosphorylation” in experiment [3] (A549 cells); “completely abolished detectable phosphorylation of MAPK” in experiment [3] (H322M cells); “little effect” in experiment [3] (H1299 and NCI-H23 cells).

Take `Nc1ccn([C@@H]2O[C@H](CO)[C@@H](O)C2(F)F)c(=O)n1` [gemcitabine]: in experiment [4], the tumor growth entry is listed as “inhibited tumor growth”.

Consider “(16Z,24Z,26Z,28Z)-1,18-dihydroxy-12-[1-(4-hydroxy-3-methoxycyclohexyl)propan-2-yl]-19-methoxy-15,17,21,23,29,35-hexamethyl-30-(5-methylthiophen-2-yl)-11,36-dioxa-4-azatricyclo[30.3.1.0̂ {4,9}]hexatriaconta-16,24,26,28-tetraene-2,3,10,14,20-pentone [rapamycin, reference compound]”, for which the “phosphorylation of S6K” value in experiment [5] is given as “inhibited phosphorylation of S6K”. For the same compound, in experiment [5] (all cell lines tested), the AKT phosphorylation result is “induced AKT phosphorylation in all cell lines tested”. The cell growth entry is “most colon cancer cell line tested did not respond well to rapamycin” in experiment [6] (rapamycin, colon cancer cell lines) and “did not respond” in experiment [6] (single agent, SJSA-1 cells).

Turning to SD018: hIGF-1R-Fc mutant E665A, in the experiment on IGF-1R-Fc, the C06 binding entry is “NE (No effect (NE): measured KD within 2.5-fold of WT hIGF-1R-Fc)”, the C03 binding entry is “NE (No effect (NE): measured KD within 2.5-fold of WT hIGF-1R-Fc)” and the G11 binding result is “NE (No effect (NE): measured KD within 2.5-fold of WT hIGF-1R-Fc)”. For the same compound, the “Biacore Relative RUmax” value in the experiment on IGF-1R was found to be 1.7.

Regarding “SD019: hIGF-1R-Fc mutant E739W L741F (Table 20), A739W_I741F (Table 17)”, in the experiment with IGF-1R-Fc, the C06 binding entry is “NE (No effect (NE): measured KD within 2.5-fold of WT hIGF-1R-Fc)”, the C03 binding result is on record as “NE (No effect (NE): measured KD within 2.5-fold of WT hIGF-1R-Fc)” and the G11 binding result is given as “NE (No effect (NE): measured KD within 2.5-fold of WT hIGF-1R-Fc)”. In the experiment on IGF-1R, the “Biacore Relative RUmax” value was determined as 1.9.
